Patent US7887851B2, “Aromatase activator” (Kao Corporation, priority 2004, dated 2011)

Tests used:
[1] = test system: transcription control region for exon 1b of human aromatase gene; assay: Luciferase reporter assay, Ex1b-luc in HepG2 cell (expression of exon 1b of aromatase gene); format: cell-based; conditions: added at 1%, 20 hours
Procedure: The region containing transcription control region for exon 1b of human aromatase gene and a part of the exon 1b was amplified by PCR from genomic DNA extracted from human normal keratinocyte by using the following primers: […]
The resulting PCR product was treated with restriction enzymes SpeI and EcoRI, and incorporated in SpeI site and EcoRI site in SeaPansy null Control Vector (Toyo Ink Mfg. Co., Ltd.) to produce Ex1b-luc plasmid. This plasmid was used in the luciferase assay as will be described below.
Immortalized human hepatoma-derived cell (HepG2 cell) […]
The transfected cells were cultivated overnight, and plant extract prepared in Production Example 1, Table 2, or yeast extract (“YeastLiquid B”, Ichimaru Pharcos Co Ltd.), silk protein extract (“Silkgen G Soluble KE”, Ichimaru Pharcos Co Ltd.), milk protein (“Bioderma SX-14” Ichimaru Pharcos Co Ltd.), “lactoferrin S FREE”, Ichimaru Pharcos Co Ltd.), natto extract (“Soybean polymer F B-20”, Ichimaru Pharcos Co Ltd.), or royal jelly (“royal jelly extract”, Ichimaru Pharcos Co Ltd.) was added (1% or 0.1%), and the cultivation was continued for another 20 hours. After adding 20 μL of alamarBlue (BIOSOURCE), fluorescence intensity (excitation light 544 nm, fluorescence 590 nm) was measured. Luciferase activity was also measured by using PicaGene Dual SeaPansy Luminescence kit (Nippon Gene). […]

[2] = test system: HepG2 cell; assay: alamarBlue fluorescence in Ex1b-luc transfected HepG2 cell; format: cell-based, human; conditions: added at 1%, 20 hours
Procedure: Immortalized human hepatoma-derived cell (HepG2 cell)
HepG2 cell was inoculated to 96 well culture plate at 30,000 cells per well, and Ex1b-luc was introduced using lipofectamine reagent (Invitrogen) according to the protocol described in the attached manual. The DNA was used at an amount of 0.1 μg per well. The same procedure was repeated for control without adding the DNA (2 wells).
The transfected cells were cultivated overnight, and plant extract prepared in Production Example 1, Table 2, or yeast extract (“YeastLiquid B”, Ichimaru Pharcos Co Ltd.), silk protein extract (“Silkgen G Soluble KE”, Ichimaru Pharcos Co Ltd.), milk protein (“Bioderma SX-14” Ichimaru Pharcos Co Ltd.), “lactoferrin S FREE”, Ichimaru Pharcos Co Ltd.), natto extract (“Soybean polymer F B-20”, Ichimaru Pharcos Co Ltd.), or royal jelly (“royal jelly extract”, Ichimaru Pharcos Co Ltd.) was added (1% or 0.1%), and the cultivation was continued for another 20 hours. After adding 20 μL of alamarBlue (BIOSOURCE), fluorescence intensity (excitation light 544 nm, fluorescence 590 nm) was measured. Luciferase activity was also measured by using PicaGene Dual SeaPansy Luminescence kit (Nippon Gene). The cells were lysed by adding 25 μL per well of the lysis buffer that had been diluted 5× lysis buffer to 1× concentration.

In the case of `OC[C@H]1O[C@H](O[C@H]2O[C@H](CO)[C@@H](O)[C@H](O)[C@H]2O)[C@H](O)[C@@H](O)[C@@H]1O` [Trehalose, trehalose], the Luciferase activity [1] is reported as 141.0% and the AlamarBlue activity [2] is reported as 113.9%.
